Data from patent US20250204535A1, “Rodenticide” (priority 2022, published 2025).
Where no end group is shown, it is not given here.

Assays:
Format in all cases: cell-based
[1] = tested on: Human IPSC-derived cardiomyocytes; assay: Screening synthetic peptides for alterations to human IPSC-derived cardiomyocyte beat rates; details: 2 h; dose not stated in the sentence (no increase at 0.1, 1 and 10 μg/ml)
Description: The baseline beat rate of neonatal rat and human IPSC-derived cardiomyocytes to be treated with the three synthetic fractions were determined by video microscopy of each well in triplicate using a microscope camera. Average beats/min were calculated from the triplicate readings of three separate wells (n=9). Aliquots of each peptide were taken to treat neonatal rat cardiomyocyte cells at doses of 100, 10, 1 and 0.1 μg/ml. Cells were returned to a humidified incubator at 37° C., 5% CO2 for 2 h. After 2 h the beat rate of the treated cardiomyocyte cells was reassessed using the same method used to obtain the pre-dosing beat data. This process was repeated 24 h after the addition of the synthetic peptides.

[2] = tested on: Human IPSC-derived cardiomyocytes; assay: Screening synthetic peptides for human IPSC-derived cardiomyocyte toxicity (resazurin, 24 h); details: 10 μg/ml, toxicity control
Description: (§1) Human IPSC-derived cardiomyocytes were purchased from Axol Biosciences and cultured as via their standard methodology. Briefly, cells were recovered from liquid nitrogen storage when required and the cells transferred dropwise into 10 ml of pre-warmed (37° C.) plating media (cardiomyocyte maintenance media+10% FCS+10 μM ROCK inhibitor). Cells were centrifuged at 200×g for 5 mins at room temperature. The supernatant was aspirated from the cell pellet and the cell pellet gently resuspended in 1 ml plating media. Cells were counted using a haemocytometer and trypan blue staining. Cells were plated at a seeding density of 10-20,000 cells/well in fibronectin pre-coated 384 well plates. Cells were incubated at 37° C., 5% CO2 in a humidified incubator overnight before the plating media was removed the following day and replace with fresh maintenance media (No FCS, no ROCK inhibitor). Partial media changes were performed every 2-days until cells formed a single continuous sheet of spontaneously beating cardiomyocytes (7-10 day in culture).
(§2) Rat neonatal cardiomyocytes, Embryonic chick cardiomyocytes, human IPSC-derived cardiomyocytes and rat cardiac fibroblast were cultured. […] After 24 h Resazurin dye was added to each well at a final concentration of 160 μM and the change in fluorescence of the dye monitored and recorded over a 24 h time period.

[3] = tested on: Human IPSC-derived cardiomyocytes; assay: Six lead fractions: toxicity to human IPSC-derived cardiomyocytes (resazurin); details: 3.5 μg/ml
Description: as §1
Once beating spontaneously, cells were treated with the six lead fractions diluted in maintenance media to final working concentrations of 7.5, 6, 3.5, 2.5 and 1 μg/ml. 30 μl of each fraction dilution was added to triplicate wells of cells and incubated for 2 h at 37° C., 5% CO2 in a humidified incubator. After 2 h, resazurin dye at a final working concentration of 160 μM were added to all wells and the change in fluorescence of the plate monitored over a 5 h timeframe using a BMG Labtech Fluostar plate reader. Percent toxicity was calculated from triplicate wells at each dose and plotted graphically.
Human IPSC derived cardiomyocytes were dosed in triplicate with a serial dilution of each of the six venom fractions (7.5, 6, 3.5, 2.5 and 1 μg/ml) for 2 hs at 37° C., 5% CO2 before resazurin dye was added and the change in colour and fluorescence monitored for the following 5 hrs. Percentage toxicity was calculated for each fraction at all doses and plotted graphically (FIG. 3).

[4] = tested on: Neonatal rat cardiomyocytes; assay: Screening purified venom fractions for alterations to cardiomyocyte beat rates; details: for Highest Achieved Fold Increases in Beat Rate: 1 h; for fold increases to beat rate: dose of 6 μg/ml
Description: Neonatal rat cardiomyocytes were isolated as via standard protocol and seeded at a density of 100,000 cells/96 well. Once myocyte cultures were beating spontaneously in uniform sheets, they were videoed well-by-well using a microscope camera to determine pre-dose beat rates/min. […] Cells were incubated in each fraction in a humidified incubator at 37° C., 5% CO2 for 1 h. After 1 h videos of the cells were re-recorded to obtain the post-dosing beat rate/minute. Fold changes in beat frequency were calculated for each dosed well pair.

[5] = tested on: Embryonic chick cardiomyocytes; assay: Screening synthetic peptides for embryonic chick cardiomyocyte toxicity (resazurin, 24 h); details: 10 μg/ml, toxicity control
Description: Hearts were collected from euthanised 12-13 day old embryonic chicks and transferred into filter sterilized ice-cold hanks balanced salt solution (HBSS) containing 2% Pen-strep. Hearts were washed in the HBSS to remove blood, any non-heart tissue removed and then cut into 1-3 mm pieces and placed in 40 ml filter sterilized, ice cold 0.05% trypsin/HBSS. The heart pieces in trypsin were place in a large ice bucket and incubated for 1 h on a rocker with gentle agitation to allow the tissue to digest.
All trypsin was aspirated from the tissue and discarded, and the tissue transferred evenly into 2 ml Eppendorf tubes. The tissue was then digested further using a 1 mg/ml Collagenase II/0.1% Trypsin/HBSS (filter sterilized) solution. For each digestion, 2 ml of enzyme buffer was added to all Eppendorf tubes and the tubes incubated in a 37° C. heating block for 3 mins with 400 rpm agitation. The supernatant from the first two digestions was discarded. After each of the following digestion steps, the tissue was gently triturated using a Pasteur pipette to release cells. […]
as §2

[6] = tested on: rat neonatal cardiomyocyte cells; details: 37, 60, 80, 100° C.; 6 μg/ml; rat cardiomyocytes; FIG. 4
Description: Thermal stability of the six lead fractions was investigated. Aliquots of each fraction were heated in a heat block to 37° C. (unheated), 60° C., 80° C. and 100° C. before being used to treat rat neonatal cardiomyocyte cells at a dose of 6 μg/ml. Cardiomyocyte toxicity was assessed after 24 hrs of dosing at each temperature against a similar aliquot of each fraction that had been unheated before dosing. After 24 h, 160 μM Resazurin dye was added to all cells and the change in cardiomyocyte cell viability/metabolism monitored every hour up to 5 h post dye addition. An additional measurement was recorded 24 hs after the dye had been added.

[7] = tested on: neonatal rat cardiac fibroblast cells; assay: Screening purified venom fractions for rat cardiac fibroblast toxicity (resazurin); details: neonatal rat cardiac fibroblasts
Description: Hearts were collected from euthanised 1-2-day old neonatal rat pups and transferred into filter sterilised ice-cold Hanks balanced salt solution (HBSS) containing 2% Pen-strep. Hearts were washed in the HBSS, any non-heart tissue removed and then cut into 1-3 mm pieces and placed in 40 ml filter sterilised, ice cold 0.1% trypsin/HBSS. The heart pieces in trypsin were place in a large ice bucket and incubated overnight at 4° C. on a rocker with gentle agitation to allow the tissue to digest.
The following day, all trypsin was aspirated from the tissue and the tissue transferred evenly into 2 ml Eppendorf tubes. The tissue was then digested further using a 37° C. 1 mg/ml collagenase/HBSS (filter sterilised) solution. For each collagenase digestion, 2 ml of enzyme buffer was added to all Eppendorf tubes and the tubes incubated in a 37° C. heating block for 2 mins with 400 rpm agitation. The supernatant from the first two digestions was discarded. After each of the following digestion steps, the tissue was gently triturated using a pipette to release cells. Once trituration was complete the supernatant was retained, added to a tube containing 10 ml cell culture media and stored on ice.
All cell containing supernatants were filtered through a 250 μm cell strainer to remove any potentially undigested tissue and myocytes separated from cardiac fibroblast by spinning the supernatant at 1800 g for 45 mins through a Percoll gradient. […]
Neonatal rat cardiomyocytes and cardiac fibroblasts were treated with purified venom fractions suspected of being cardiotoxins at doses of 12.5, 7.5, 6 μg/ml, with rat cardiomyocytes being treated at additional concentrations of 3.5, 2.5, 1 and 0.5 μg/ml for 2 hs in a humidified incubator at 37° C., 5% CO2. […] The change in fluorescence of the resazurin dye was monitored over a 5 h timeframe using a BMG Fluostar plate reader. Percent inhibition of both cell types in response to each fraction at each dose were calculated and plotted graphically.

Row | Substance | increase to the beat rate of human cardiomyocytes over pre-dosing beat rate [1] | toxicity against human IPSC-derived cardiomyocytes [2] | toxicity in human IPSC-derived cells compared to rodent cardiomyocytes [3] | Highest Achieved Fold Increases in Beat Rate ([4]; Dose 6 μg/ml) | fold increases to beat rate [4] | toxicity against embryonic chick cardiomyocytes [5] | thermal stability (change in cytotoxic activity after heating) [6] | doses showing cardiac fibroblast toxicity [7] | Highest Achieved Fold Increases in Beat Rate ([4]; Dose 1 μg/ml)
1 | LKCNKLIPLAYKT [Synthetic peptide 2] | 1.5 fold |  |  |  |  |  |  |  | 
2 | N.nka_I18_R4 (LKCNKLIPLAYKTCPAGKDLCYKMYMVSDKTVPVKRGCIDVCPKNSLLVKYECCNTDRCN) |  | ≈ 90% | reduction in toxicity | 7.00 fold | greater than 7 fold | ≈ 90% | no significant changes in the activity |  | 
3 | N.nig_I19_R4 (LKCNKLIPIAYKTCPEGKNLCYKMMLASKKMVPVKRGCIDVCPKDSALVKYVCCSTDRCN) |  | ≈ 90% |  |  | greater than 5.5 fold | ≈ 90% | no significant changes in the activity | 12.5 µg/mL | 6.25 fold
